# In publication PMC6104039 (Nature Communications, 2018):
# Where “and” joins values, the source holds several entries; their conditions need not be identical. Identical values can stand only once.
# Experiments:
# [1] = system: gastrocnemius muscle; experiment: Targeted analysis of ceramide, SM and HexCer in gastrocnemius muscle; format: in vivo, mice; parameters: HexCer 18:1/22:0 content of gastrocnemius muscle / SM 34:1 content of gastrocnemius muscle / SM 34:2 content of gastrocnemius muscle / SM 36:2 content of gastrocnemius muscle / SM 36:1 content of gastrocnemius muscle / SM 40:1 content of gastrocnemius muscle / SM 42:2 content of gastrocnemius muscle / SM 42:1 content of gastrocnemius muscle / Cer 18:1/16:0 content of gastrocnemius muscle / Cer 18:1/18:0 content of gastrocnemius muscle / Cer 18:2/18:0 content of gastrocnemius muscle / Cer 18:0/18:0 content of gastrocnemius muscle / Cer 18:1/22:0 content of gastrocnemius muscle / Cer 18:1/24:1 content of gastrocnemius muscle / Cer 18:0/24:1 content of gastrocnemius muscle / Cer 18:1/24:0 content of gastrocnemius muscle / HexCer 18:1/16:0 content of gastrocnemius muscle / HexCer 18:1/18:0 content of gastrocnemius muscle / HexCer 18:1/20:0 content of gastrocnemius muscle: unit not given beside the values; details: HFD + P053, individual mice
# [2] = system: C57BL6/J mice; experiment: Oral glucose tolerance test with labelled glucose and fasting insulin; format: in vivo; details: 5 mg/kg, chow or HFD
# Protocol: Mice were fasted for 6 h, then received 50 mg stable isotope-labeled glucose (6,6-^2H glucose, Sigma Aldrich) by oral gavage. Blood glucose was measured with a glucose meter (Accu-Check, Roche, NSW, Australia) prior to and at 15, 30, 45, 60 and 90 min following gavage. Additional blood (~10 μL) was collected from the tail tip prior to and at 15 and 60 min following glucose gavage. These samples were used to perform mass isotopologue analysis of plasma glucose via gas chromatography–mass spectrometry (GC–MS)[70]. Specifically, plasma glucose was separated into the labelled glucose load and the endogenous (liver/kidney-derived) unlabelled glucose to permit differentiation of glucose disposal from endogenous glucose production (Supplementary Figure 10). Fasting blood insulin was measured using an Ultrasensitive Mouse Insulin ELISA Kit (Crystal Chem, Illinois, USA). […]
# endogenous glucose synthesis. Plasma concentration of (a) labelled glucose resulting from an oral glucose load, and (b) endogenous glucose, during the oral glucose tolerance test. Mice
# [3] = system: SkM homogenates; experiment: 14C-palmitate oxidation in SkM homogenates of treated mice; format: in vivo; details: chow and HFD-fed mice, 6 weeks
# Protocol: Tibialis muscles were homogenized in 19 volumes of 250 mM sucrose, 10 mM Tris-HCl and 1 mM EDTA, pH 7.4.
# [4] = system: PPAR alpha; experiment: PMP70 protein expression in liver lysates (PPAR alpha agonism); format: in vivo, mice
# Text: For PPAR alpha we have examined the protein expression of
# PMP70 (an abundant peroxisomal m embrane protein) in liver lysates, as PPAR alpha is much more
# highly expressed in liver and we have clear evidence (Supplementary Fig 6) that P053 distributes
# into liver at levels that are higher that those present in skeletal muscle.
# treated with a known PPAR alpha agonist WY14643 (WY) vs. vehicle (veh) controls shown on the
# right of the gel as positive controls.
# [5] = system: C57BL6/J mice; experiment: Hyperinsulinemic-euglycemic clamps; format: in vivo; details: 5 mg/kg, chow or HFD
# Protocol: At 5 weeks of diet/drug treatment, mice underwent surgery to implant catheters into the left carotid artery and right jugular vein. Catheters were flushed every 1–2 days with heparinised saline to maintain patency. Approximately 6–8 days post surgery, and after a ~5 h fast, a hyperinsulinemic-euglycemic clamp was conducted. Mice were conscious, unrestrained and were not handled during the procedure to minimize stress. At −90 min, a primed (5 μCi) continuous infusion (0.05 μCi/min) of [3,^3H]-glucose (PerkinElmer) was commenced. Samples were collected at −30, −20, −10 and 0 min for basal glucose turnover (Rd) determination. […] Once blood glucose was stable, four sequential samples were taken to determine insulin-stimulated glucose turnover. A bolus of 2[^14C]deoxyglucose (10 μCi; PerkinElmer) was then administered and blood sampled at 2, 5, 10, 15, 20 and 30 min, prior to collection of muscles for determination of glucose uptake.
compound,measurement,setting,value
"C[C@@](N)(CO)CCc1ccc(OCc2ccc(Cl)c(Cl)c2)cc1 [P053, (S)-2-amino-4-(4-(3,4-dichlorobenzyloxy)phenyl)-2-methylbutan-1-ol]",Cer 18:0/18:0 content of gastrocnemius muscle,[1],6.696 (2×) and 6.991 and 7.614 and 9.306 and 10.4442 and 6.363 and 5.154 and 5.258 and 4.509
same,Cer 18:0/24:1 content of gastrocnemius muscle,[1],4.519 and 1.914 and 1.715 and 1.673 and 2.381 and 12.1481 and 1.438 and 1.998 and 3.6 and 0.9202
same,Cer 18:1/16:0 content of gastrocnemius muscle,[1],0.2953 and 0.2425 and 0.247 and 0.3667 and 0.6053 and 1.286 and 0.3154 and 0.1867 and 0.2439 and 0.2642
same,Cer 18:1/18:0 content of gastrocnemius muscle,[1],21.9657 and 17.6562 and 21.0561 and 17.8475 and 19.1897 and 17.6974 and 13.2972 and 14.5082 and 22.6242 and 9.617
same,Cer 18:1/20:0 content of gastrocnemius muscle,[1],1.3 and 0.9773 and 1.039 and 0.7088 and 1.3618 and 1.151 and 0.5199 and 0.8084 and 1.045 and 0.6734
same,Cer 18:1/22:0 content of gastrocnemius muscle,[1],6.663 and 2.886 and 2.627 and 3.138 and 3.9433 and 5.15 and 2.442 and 3.877 and 4.12 and 2.291
same,Cer 18:1/24:0 content of gastrocnemius muscle,[1],8.75 and 4.723 and 4.013 and 4.317 and 4.82 and 10.8999 and 3.077 and 4.318 and 7.266 and 2.309
same,Cer 18:1/24:1 content of gastrocnemius muscle,[1],11.3105 and 7.675 and 5.851 and 7.272 and 9.129 and 11.5338 and 5.462 and 9.029 and 11.0555 and 5.753
same,Cer 18:2/18:0 content of gastrocnemius muscle,[1],0.4484 and 0.4926 and 0.3634 and 0.4132 and 0.2765 and 0.3608 and 0.2849 and 0.2673 and 0.3042 and 0.2757
same,HexCer 18:1/16:0 content of gastrocnemius muscle,[1],0.07083 and 0.2298 and 0.1257 and 0.1094 and 0.2809 and 0.09552 and 0.04859 and 0.09042 and 0.2927 and 0.128
same,HexCer 18:1/18:0 content of gastrocnemius muscle,[1],0.6278 and 2.316 and 1.725 and 1.053 and 1.514 and 0.3784 and 1.339 and 1.2334 and 3.411 and 0.7622
same,HexCer 18:1/20:0 content of gastrocnemius muscle,[1],1.025 and 3.657 and 4.193 and 2.559 and 2.728 and 0.775 and 2.303 and 1.6216 and 6.493 and 1.535
same,HexCer 18:1/22:0 content of gastrocnemius muscle,[1],7.522 and 16.4106 and 20.0443 and 14.4231 and 12.9484 and 5.248 and 12.5609 and 13.236 and 35.9679 and 8.484
same,HexCer 18:1/22:1 content of gastrocnemius muscle,[1],0.5466 and 1.486 and 1.3 and 1.291 and 1.104 and 0.193 and 0.8615 and 0.6275 and 2.662 and 0.7906
same,HexCer 18:1/24:0 content of gastrocnemius muscle,[1],35.0734 and 65.2406 and 70.8422 and 52.1762 and 47.7217 and 19.7676 and 40.4927 and 43.8786 and 131.229 and 26.1187
same,HexCer 18:1/24:1 content of gastrocnemius muscle,[1],11.8966 and 34.458 and 33.6892 and 26.2534 and 24.7881 and 7.796 and 20.5958 and 23.2933 and 61.9739 and 13.7499
same,SM 34:1 content of gastrocnemius muscle,[1],32.5351 and 75.4148 and 64.2595 and 68.4699 and 74.2315 and 69.3058 and 56.8022 and 63.1231 and 40.9981 and 91.0819
same,SM 34:2 content of gastrocnemius muscle,[1],1.53 and 2.835 and 1.998 and 2 and 2.418 and 2.144 and 2.133 and 2.338 and 2.209 and 2.34
same,SM 36:1 content of gastrocnemius muscle,[1],125.344 and 223.512 and 246.64 and 236.8 and 200.399 and 135.056 and 273.936 and 199.397 and 141.624 and 291.891
same,SM 36:2 content of gastrocnemius muscle,[1],1.77 and 3.547 and 2.905 and 2.734 and 5.421 and 3.741 and 3.767 and 2.494 and 1.973 and 4.895
same,SM 40:1 content of gastrocnemius muscle,[1],74.9293 and 89.7182 and 104.131 and 44.9676 and 58.8143 and 74.268 and 90.7758 and 60.0553 and 174.22 and 68.0463
same,SM 42:1 content of gastrocnemius muscle,[1],42.7745 and 43.392 and 45.2063 and 34.368 and 60.6982 and 34.7124 and 28.1104 and 34.3376 and 109.833 and 16.1089
same,SM 42:2 content of gastrocnemius muscle,[1],124.791 and 220.201 and 175.989 and 144.772 and 171.488 and 135.796 and 111.009 and 132.926 and 406.752 and 102.287
same,fasting insulin and glucose tolerance,[2],no impact
same,iAUC for the labelled glucose load,[2],no effect
same,oxidation of 14C-palmitate in muscle homogenates,[3],increased oxidation
same,expression of PMP70,[4],unaffected
same,"glucose infusion rate, peripheral glucose disposal, insulin-stimulated glucose uptake in SkM",[5],no impact
